For this experiment, the target named is T1, progesterone receptor (PR) (Homo sapiens, UniProt P06401).
T1 sequence (P06401 1-933): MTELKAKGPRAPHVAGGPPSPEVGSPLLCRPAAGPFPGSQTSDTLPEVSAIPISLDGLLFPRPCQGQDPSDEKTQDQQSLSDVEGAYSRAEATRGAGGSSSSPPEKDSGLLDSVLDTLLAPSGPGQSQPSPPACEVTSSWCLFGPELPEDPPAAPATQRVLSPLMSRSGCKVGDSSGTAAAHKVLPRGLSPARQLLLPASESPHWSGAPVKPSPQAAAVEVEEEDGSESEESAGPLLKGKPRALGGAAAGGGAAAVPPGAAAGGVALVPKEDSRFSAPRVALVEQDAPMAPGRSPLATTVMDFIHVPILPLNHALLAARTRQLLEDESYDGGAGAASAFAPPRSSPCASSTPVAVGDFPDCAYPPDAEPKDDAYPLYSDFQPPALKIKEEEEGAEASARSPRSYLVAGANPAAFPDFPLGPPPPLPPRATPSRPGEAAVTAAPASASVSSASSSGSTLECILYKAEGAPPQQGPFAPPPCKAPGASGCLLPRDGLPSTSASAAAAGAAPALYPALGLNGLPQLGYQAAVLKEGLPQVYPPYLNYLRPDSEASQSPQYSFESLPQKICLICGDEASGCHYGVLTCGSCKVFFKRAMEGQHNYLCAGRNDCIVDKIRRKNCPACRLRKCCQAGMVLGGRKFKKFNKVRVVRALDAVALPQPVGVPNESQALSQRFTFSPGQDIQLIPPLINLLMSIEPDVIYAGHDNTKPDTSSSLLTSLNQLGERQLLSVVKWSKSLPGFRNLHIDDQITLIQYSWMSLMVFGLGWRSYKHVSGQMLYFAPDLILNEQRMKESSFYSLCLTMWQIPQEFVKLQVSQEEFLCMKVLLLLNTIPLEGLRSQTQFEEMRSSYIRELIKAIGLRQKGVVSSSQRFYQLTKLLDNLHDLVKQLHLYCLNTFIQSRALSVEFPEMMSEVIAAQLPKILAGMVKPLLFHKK
The experiment can be described thus: Radioligand binding assay with progesterone receptor cytosol (similar protocol). An excerpt: Methods for Radioligand Binding Studies with Human Glucocorticoid and Progesterone Receptor Cytosol
A similar protocol was employed to measure affinity of the compounds of the present invention for progesterone receptor (PR).

By IC50 is commonly meant the concentration that inhibits the measured activity by half. As for `CS(=O)(=O)Nc1ccc2c(c1)C(c1cccc(CCCCc3ccccc3)c1)Oc1cccc(OC(F)F)c1-2` (centres unmarked) [Example 136, N-{1-(difluoromethoxy)-6-[3-(4-phenylbutyl)phenyl]-6H-benzo[c]chromen-8-yl}methanesulfonamide], the IC50 is greater than 10000 nM.
For `CCOC(=O)CCc1cccc(C2Oc3cccc(OC(F)F)c3-c3ccc(NS(C)(=O)=O)cc32)c1` (centres unmarked) [Example 118, ethyl 3-(3-{1-(difluoromethoxy)-8-[(methylsulfonyl)amino]-6H-benzo[c]chromen-6-yl}phenyl)propanoate] the value was 610 nM; for `COCC#Cc1ccc(C2Oc3cccc(OC)c3-c3ccc(NS(C)(=O)=O)cc32)s1` (centres unmarked) [Example 92, N-{1-methoxy-6-[5-(3-methoxy-1-propynyl)-2-thienyl]-6H-benzo[c]chromen-8-yl}methanesulfonamide], 51 nM.
Under `CS(=O)(=O)Nc1ccc2c(c1)C(c1ccc(Br)s1)Oc1cccc(OC(F)F)c1-2` (centres unmarked) [Example 96, N-{6-(5-bromo-2-thienyl)-1-(difluoromethoxy)-6H-benzo[c]chromen-8-yl}methanesulfonamide] stands 120 nM.
On to `C=CCOc1cccc(C2Oc3cccc(OC(F)F)c3-c3ccc(NS(C)(=O)=O)cc32)c1` (centres unmarked) [Example 116, N-[6-[3-(allyloxy)phenyl]-1-(difluoromethoxy)-6H-benzo[c]chromen-8-yl]methanesulfonamide], for which the IC50 turned out to be 1050 nM.
`COc1cccc2c1-c1ccc(NS(C)(=O)=O)cc1C(c1cccc(-c3ccc(Cl)c(Cl)c3)c1)O2` (centres unmarked) [Example 127, N-[6-(3′,4′-dichloro[1,1′-biphenyl]-3-yl)-1-methoxy-6H-benzo[c]chromen-8-yl]methanesulfonamide] yielded an IC50 greater than 10000 nM.
With `COc1cccc2c1-c1ccc(CS(N)(=O)=O)cc1C(c1cccc(Cl)c1)O2` (centres unmarked) [Example 60, (1-methoxy-6-(3-chlorophenyl)-6H-dibenzo(b,d)pyran-8-yl)methanesulfonamide], the IC50 stood at 500 nM.
For `O=S(=O)(Nc1ccc2c(c1)C(c1ccccc1)Oc1cccc(OC(F)F)c1-2)c1cccs1` (centres unmarked) [Example 26, N-(1-difluoromethoxy-6-phenyl-6H-dibenzo[b,d]pyran-8-yl)-thiophene-2-sulfonamide] the value was 29 nM; for `CS(=O)(=O)Nc1ccc2c(c1)C(c1ccc(Br)cc1)Oc1cccc(OC(F)F)c1-2` (centres unmarked) [Example 109, N-[6-(4-bromophenyl)-1-(difluoromethoxy)-6H-benzo[c]chromen-8-yl]methanesulfonamide], 250 nM.
For `COc1cccc2c1-c1ccc(NS(C)(=O)=O)cc1C(c1ccc(-c3ccccc3)s1)O2` (centres unmarked) [Example 100, N-[1-methoxy-6-(5-phenyl-2-thienyl)-6H-benzo[c]chromen-8-yl]methanesulfonamide] the value was 250 nM.
For `CCOCCCc1cccc(C2Oc3cccc(OC(F)F)c3-c3ccc(NS(C)(=O)=O)cc32)c1` (centres unmarked) [Example 120, N-{1-(difluoromethoxy)-6-[3-(3-ethoxypropyl)phenyl]-6H-benzo[c]chromen-8-yl}methanesulfonamide] the value was 500 nM; for `COc1cccc2c1-c1ccc(NS(C)(=O)=O)cc1C(c1cccc(N(C)S(=O)(=O)c3ccccc3)c1)O2` (centres unmarked) [Example 129, N(3-{1-methoxy-8-[(methylsulfonyl)amino]-6H-benzo[c]chromen-6-yl}phenyl)-N-methylbenzenesulfonamide], greater than 10000 nM.
As to `COc1cccc2c1-c1ccc(NS(C)(=O)=O)cc1C(c1ccc(C#CCCCO)s1)O2` (centres unmarked) [Example 102, N-{6-[5-(5-hydroxy-1-pentynyl)-2-thienyl]-1-methoxy-6H-benzo[c]chromen-8-yl}methanesulfonamide], the IC50 is greater than 1000 nM.
For the compound `Cc1ccc(-c2cccc(C3Oc4cccc(OC(F)F)c4-c4ccc(NS(C)(=O)=O)cc43)c2)cc1` (centres unmarked) [Example 147, N-[1-(difluoromethoxy)-6-(4′-methyl[1,1′-biphenyl]-3-yl)-6H-benzo[c]chromen-8-yl]methanesulfonamide], the IC50 was determined as 530 nM.

The values are drawn from patent US6593480B2 (Abbott Laboratories, priority 1999, dated 2003).
